The values that follow come from ChEMBL document CHEMBL4251555, “Synthesis, antitumor evaluation and microarray study of some new pyrazolo[3,4-d][1,2,3]triazine derivatives” (Eur J Med Chem, 2017).

Bounds are passed on as bounds.

A short description of data set [1]: Selectivity index, ratio of IC50 for human RPE1 cells to IC50 for human CCRF-CEM cells. Format: toxicity. To be noted: RPE1 cells versus CCRF-CEM cells, read-out: Ratio IC50.
The subject of a further data set is CCRF-CEM. In words: Cytotoxicity against human CCRF-CEM cells after 48 hrs by resazurin assay. Format: functional, cell-based. A general note: The colour change of resazurin is a common sign of viable cells or microbes.
Data set [2] is described as follows: Selectivity index, ratio of IC50 for human RPE1 cells to IC50 for human PANC1 cells. Format: toxicity. The settings on record: RPE1 cells versus PANC1 cells, read-out: Ratio IC50.
Data set [3] concerns PANC-1. In words: Cytotoxicity against human PANC1 cells after 48 hrs by resazurin assay. Format: functional, cell-based. To be noted: PANC-1, 48 h.
Another data set has as its system TERT-RPE1. As to the kind of experiment: Cytotoxicity against human RPE1 cells after 48 hrs by resazurin assay. Format: cell-based. The settings on record: RPE-1, 48 h.
Data set [4] can be described thus: Selectivity index, ratio of IC50 for human RPE1 cells to IC50 for human HuH7 cells. Format: toxicity. The settings on record: RPE1 cells versus HuH7 cells, read-out: Ratio IC50.
Data set [5] concerns Huh-7. In words: Cytotoxicity against human HuH7 cells after 48 hrs by resazurin assay. Format: functional, cell-based. To be noted: Huh-7, 48 h.
Data set [6] deals with Huh-7. In words: Induction of apoptosis in human HuH7 cells assessed as caspase-3/7 activation after 24 hrs by Caspase-Glo assay. Format: functional, cell-based.
The subject of data set [7] is PANC-1. As to the kind of experiment: Induction of apoptosis in human PANC1 cells assessed as caspase-3/7 activation after 24 hrs by Caspase-Glo assay. Format: functional, cell-based.
For data set [8], the system named is Huh-7. In words: Upregulation of UGT2B15 gene expression in human HuH7 cells after 48 hrs by micro-array analysis relative to control. Format: functional.
Data set [9] has as its system Huh-7. In words: Downregulation of TAGLN gene expression in human HuH7 cells after 48 hrs by micro-array analysis relative to control. Format: functional.
In data set [10] the test system is Huh-7. As to the kind of experiment: Upregulation of UGT2B7 gene expression in human HuH7 cells after 48 hrs by micro-array analysis relative to control. Format: functional.
Data set [11] deals with Huh-7. As to the kind of experiment: Upregulation of UGT2B17 gene expression in human HuH7 cells after 48 hrs by micro-array analysis relative to control. Format: functional.
Data set [12] deals with Huh-7. As to the kind of experiment: Upregulation of UGT1A1 gene expression in human HuH7 cells after 48 hrs by micro-array analysis relative to control. Format: functional.
Data set [13] concerns Huh-7. As to the kind of experiment: Downregulation of SOCS2 gene expression in human HuH7 cells after 48 hrs by micro-array analysis relative to control. Format: functional.
The test system of data set [14] is Huh-7. As to the kind of experiment: Downregulation of GIP3 gene expression in human HuH7 cells after 48 hrs by micro-array analysis relative to control. Format: functional.
The subject of data set [15] is Huh-7. In words: Downregulation of FSCN1 gene expression in human HuH7 cells after 48 hrs by micro-array analysis relative to control. Format: functional.
Data set [16] has as its system Huh-7. As to the kind of experiment: Downregulation of IFI27 gene expression in human HuH7 cells after 48 hrs by micro-array analysis relative to control. Format: functional.
For data set [17], the system named is Huh-7. In words: Upregulation of MUCDH1 gene expression in human HuH7 cells after 48 hrs by micro-array analysis relative to control. Format: functional.
In data set [18] the test system is Huh-7. As to the kind of experiment: Downregulation of THBS1 gene expression in human HuH7 cells after 48 hrs by micro-array analysis relative to control. Format: functional.
In data set [19] the test system is Huh-7. In words: Upregulation of DNASE1 gene expression in human HuH7 cells after 48 hrs by micro-array analysis relative to control. Format: functional.
For data set [20], the system named is Huh-7. As to the kind of experiment: Upregulation of SLC26A3 gene expression in human HuH7 cells after 48 hrs by micro-array analysis relative to control. Format: functional.

Take `CCOc1ccc(-n2nnc3n[nH]c(NC45CC6CC(CC(C6)C4)C5)c3c2=O)cc1`: the values for the selectivity ratio in [1], in data set [2] and in [4] were greater than 6.4, greater than 22.7 and greater than 4.3, respectively. In addition, the IC50 in the data set with CCRF-CEM is 15.6 µM; in the data set on PANC-1 [3], 4.41 µM; in the data set on TERT-RPE1 it was greater than 100 µM; in the data set on Huh-7 [5], 23.2 µM.

`CCOc1ccc(NC(=O)/C(C#N)=C(\NC23CC4CC(CC(C4)C2)C3)SC)cc1`: the selectivity ratio in data set [1] was greater than 5.7; in data set [2] it was greater than 4.2; in [4] it was greater than 10. The IC50 is 17.6 µM in the data set with CCRF-CEM, 23.7 µM in the data set with PANC-1 [3], greater than 100 µM with TERT-RPE1 and 10 µM in the data set with Huh-7 [5].

On to `COc1cccc2c1C(=O)c1c(O)c3c(c(O)c1C2=O)C[C@@](O)(C(=O)CO)C[C@@H]3O[C@H]1C[C@H](N)[C@H](O)[C@H](C)O1` [DOXORUBICIN], for which the figures for the IC50 with TERT-RPE1 and in the data set on Huh-7 [5] were 14 µM and 5.43 µM, respectively.

Consider `CCOc1ccc(NC(=O)c2c(N)n[nH]c2NC)cc1`, for which the selectivity ratio was greater than 12.7 in [1], greater than 3.2 in data set [2] and greater than 4.6 in [4]. Also, the half-maximal inhibitory concentration (IC50) in the data set with CCRF-CEM is 7.9 µM; in the data set with PANC-1 [3] it was 31 µM; in the data set on TERT-RPE1, greater than 100 µM; in the data set with Huh-7 [5] it was 21.8 µM.

In the case of `CCOc1ccc(-n2nnc3n[nH]c(Nc4ccccc4)c3c2=O)cc1`, the selectivity ratio in data set [1] is greater than 16.9; in [2], greater than 7.6; in data set [4], greater than 10.6. Also, the IC50 in the data set on CCRF-CEM is 5.92 µM; in the data set on PANC-1 [3], 13.1 µM; in the data set on TERT-RPE1, greater than 100 µM; in the data set on Huh-7 [5] it was 9.39 µM.

As for `CCOc1ccc(NC(=O)CC#N)cc1`, the selectivity ratio in [1] is greater than 7.1; in data set [2], greater than 2.3; in [4] it was greater than 4.6. The IC50 in the data set with CCRF-CEM is 14.1 µM; in the data set on PANC-1 [3], 43.9 µM; in the data set on TERT-RPE1 it was greater than 100 µM; in the data set on Huh-7 [5], 21.5 µM.

With `C=CCNc1[nH]nc(N)c1C(=O)Nc1ccc(OCC)cc1`, the selectivity ratio in data set [1] was greater than 15.2; in data set [2], greater than 3.2; in [4], greater than 4.5. Further, the IC50 is 6.56 µM in the data set on CCRF-CEM, 30.8 µM in the data set on PANC-1 [3], greater than 100 µM in the data set with TERT-RPE1 and 22 µM in the data set on Huh-7 [5].

With `CCOc1ccc(NC(=O)/C(C#N)=C(\NC)SC)cc1`, the Activity entry with Huh-7 [6] and in the data set on PANC-1 [7] was “Dose-dependent effect” throughout. In addition, the selectivity ratio in [1] is greater than 10.1; in [2], greater than 3.8; in data set [4] it was greater than 17.3. The IC50 with CCRF-CEM was 9.94 µM; in the data set on PANC-1 [3], 26.4 µM; in the data set on TERT-RPE1 it was greater than 100 µM; with Huh-7 [5], 5.78 µM.

With `CCNc1[nH]nc(N)c1C(=O)Nc1ccc(OCC)cc1`, the selectivity ratio in data set [1] is greater than 7.2; in [2] it was greater than 6.8; in data set [4], greater than 3.7. The IC50 was 14 µM with CCRF-CEM, 14.8 µM in the data set with PANC-1 [3], greater than 100 µM with TERT-RPE1 and 27 µM in the data set on Huh-7 [5].

As for `CCOc1ccc(NC(=O)/C(C#N)=C(\Nc2ccccc2)SC)cc1`, the selectivity ratio in data set [1] was greater than 4.9; in data set [2], greater than 2; in [4], greater than 4. Further, the IC50 in the data set with CCRF-CEM is 20.3 µM; in the data set on PANC-1 [3], 49.3 µM; with TERT-RPE1, greater than 100 µM; with Huh-7 [5] it was 25.3 µM.

On to `CCOc1ccc(NC(=O)c2c(N)n[nH]c2Nc2ccccc2)cc1`, for which the selectivity ratio in data set [1] came out at 15.1; in data set [2], 3.2; in data set [4] it was 15.7. Also, the IC50 in the data set with CCRF-CEM is 4.47 µM; with PANC-1 [3] it was 21 µM; in the data set on TERT-RPE1, 67.8 µM; in the data set with Huh-7 [5], 4.32 µM.

Consider `CCNc1[nH]nc2nnn(-c3ccc(OCC)cc3)c(=O)c12`, for which the selectivity ratio is greater than 6.6 in data set [1], greater than 6.2 in data set [2] and greater than 6.9 in [4]. Moreover, the IC50 in the data set on CCRF-CEM is 15.2 µM; with PANC-1 [3] it was 16.1 µM; in the data set with TERT-RPE1, greater than 100 µM; in the data set on Huh-7 [5], 14.4 µM.

As for `C=CCN/C(SC)=C(/C#N)C(=O)Nc1ccc(OCC)cc1`, the Activity entry in the data set with Huh-7 [6] and with PANC-1 [7] was “Dose-dependent effect” throughout. In addition, the figures for the selectivity ratio in data set [1], in data set [2] and in [4] were greater than 5.4, greater than 4.6 and greater than 11.3, respectively. Besides, the concentration for half-maximal inhibition (IC50) in the data set on CCRF-CEM is 18.5 µM; with PANC-1 [3], 21.8 µM; in the data set with TERT-RPE1, greater than 100 µM; in the data set with Huh-7 [5], 8.85 µM.

On to `CCN/C(SC)=C(/C#N)C(=O)Nc1ccc(OCC)cc1`, for which the selectivity ratio in [1] was greater than 10.1; in data set [2], greater than 2.4; in data set [4], greater than 6.1. The 50% inhibitory concentration (IC50) with CCRF-CEM is 9.89 µM; in the data set on PANC-1 [3], 41.6 µM; with TERT-RPE1 it was greater than 100 µM; with Huh-7 [5], 16.4 µM.

As for `C=CCNc1[nH]nc2nnn(-c3ccc(OCC)cc3)c(=O)c12`, the “fold change (FC)” value is recorded as “>=3 - 6” in the data set with Huh-7 [8]; greater than 4 in the data set on Huh-7 [9]; “>=3 - 6” with Huh-7 [10]; “>=3 - 6” with Huh-7 [11]; “>=3 - 6” with Huh-7 [12]; greater than 4 with Huh-7 [13]. Moreover, the “fold change (FC)” value with Huh-7 [14] is reported as greater than 4; with Huh-7 [15], greater than 4; with Huh-7 [16], greater than 4; in the data set on Huh-7 [17], “>=3 - 6”; in the data set on Huh-7 [18], greater than 4; with Huh-7 [19], “>=3 - 6”. Also, in the data set with Huh-7 [20], the “fold change (FC)” value is “>=3 - 6”. For the same molecule, the Activity entry in the data set on Huh-7 [6] and in the data set on PANC-1 [7] was “Dose-dependent effect” each time. The selectivity ratio in data set [1] is greater than 21.2; in [2], greater than 7.5; in data set [4] it was greater than 20.3. Further, the IC50 in the data set on CCRF-CEM is 4.73 µM; with PANC-1 [3], 13.3 µM; in the data set on TERT-RPE1, greater than 100 µM; in the data set with Huh-7 [5], 4.94 µM.

For the molecule `CCOc1ccc(-n2nnc3n[nH]c(NC)c3c2=O)cc1`, the Activity result in the data set with Huh-7 [6] and in the data set on PANC-1 [7] was “Dose-dependent effect” throughout. In addition, the selectivity ratio in data set [1] is greater than 8.1; in data set [2], greater than 10.1; in data set [4] it was greater than 14.3. The IC50 in the data set on CCRF-CEM was 12.4 µM; in the data set on PANC-1 [3], 9.92 µM; in the data set with TERT-RPE1 it was greater than 100 µM; in the data set with Huh-7 [5] it was 7.01 µM.

`CCOc1ccc(NC(=O)c2c(N)n[nH]c2NC23CC4CC(CC(C4)C2)C3)cc1`: the selectivity ratio in data set [1] is 5.3; in data set [2] it was 6.2; in data set [4], 7.6. The IC50 in the data set with CCRF-CEM was 15.2 µM; with PANC-1 [3], 13.2 µM; with TERT-RPE1 it was 81.2 µM; with Huh-7 [5], 10.6 µM.

By IC50 is commonly meant the concentration that inhibits the measured activity by half. Higher therefore signals a need for much substance.
